# Where a name gives a salt, the structure may show the parent alone.
# Tests used:
# HEI-OC1 cells = assay: Caspase-Glo 3/7 assay in cisplatin-treated HEI-OC1 cells; settings: for activity at 0.165 µM / activity at 40 µM / activity at 13.3 µM: Mus musculus, HEI-OC1, 19 h, read-out: caspase activity reached; for caspase activity reached: normalized to cisplatin-only and media-only controls; for IC50: read-out: calculated IC50 (percent protection dose response, caspase 3/7), HEI-OC1 cells, 1 h pretreatment, 19 h co-incubation
# Protocol: Cells were seeded at 8,000 cells/well in 96 well plates and left to attach overnight. […] The cells were co-incubated with cisplatin and drug candidates for an additional 19 hours prior to Caspase-Glo 3/7 assay (Promega, Madison, WI) as previously shown. […] The luminescence detection representing caspase activity in each well was obtained using a Cytation Hybrid Multi-Mode Reader (Biotek, Winooski, VT, USA). The percent protection of the cells was calculated using caspase 3/7 readouts and the following formula:
# Caspase activity was measured using Caspase-Glo 3/7 assay and then the results were calculated as percentage of protection as an indicator of cell survival/viability. Percent protection for each compound at the tested dosages were then plotted to show dose response curves, and IC50s were calculated.
# [1] = test system: zebrafish HCs (lateral-line neuromasts); assay: Cisplatin ototoxicity in zebrafish, neuromast hair cell count
# cancer patients = settings: cisplatin chemotherapy; cited from earlier work
# zebrafish hair cells = assay: Excitotoxic hair cell damage in zebrafish (FIG. 4C); type: in vivo; settings: P<0.05, one-way ANOVA
# Text: (*P<0.05, one-way ANOVA.)
# [2] = test system: patients who received cisplatin chemotherapy; settings: cited from earlier work
# [3] = 0.002, 0.018, 0.165, 1.48, 13.3 μM for 1 hour, then co-incubation with 400 μM cisplatin for 4 hours
SMILES,"protection against cisplatin ototoxicity (CIHL) in zebrafish [1, 3]",activity at 40 µM (HEI-OC1 cells) [%],further results
C[C@H](CS)C(=O)N1CCC[C@H]1C(=O)O [captopril],showed protection against CIHL,–,activity at 0.165 µM (HEI-OC1 cells): ~85%
CC(S)C(=O)NCC(=O)O (stereo not drawn) [tiopronin],showed protection against CIHL,–,–
N.N.[Cl][Pt][Cl] [Cisplatin],–,–,"permanent hearing loss, share of treated cancer patients (cancer patients): 40-60%"
C1CCC(C(CC2CCCCN2)C2CCCCC2)CC1 (stereo not drawn) [perhexiline maleate],showed protection against CIHL,0,–
CC[C@@]1(O)C(=O)OCc2c1cc1n(c2=O)Cc2cc3ccccc3nc2-1 [camptothecin],showed protection against CIHL,–,activity at 13.3 µM (HEI-OC1 cells): ~80%
O=C(O)[C@@H](S)[C@@H](S)C(=O)O [succimer],showed protection against CIHL,~80,–
CCc1c2c(nc3ccc(OC(=O)N4CCC(N5CCCCC5)CC4)cc13)-c1cc3c(c(=O)n1C2)COC(=O)[C@]3(O)CC [irinotecan],showed protection against CIHL,–,activity at 13.3 µM (HEI-OC1 cells): ~60%
Cc1nc2ccc(CN(C)c3ccc(C(=O)N[C@@H](CCC(=O)O)C(=O)O)s3)cc2c(=O)[nH]1 [raltitrexed],showed protection against CIHL,~20,–
O=C(Nc1ccc([N+](=O)[O-])cc1Cl)c1cc(Cl)ccc1O [Niclosamide],–,–,"caspase-3/7 activity versus control cells (in words) (HEI-OC1 cells; dose 4.4 μM, cisplatin 50 μM, n=3 wells): reduce caspase activity to comparable levels as control cells; cisplatin damage in zebrafish HCs at SO3 and O1-2 neuromasts ([1]; pretreated with 0.002 μM, n=5 to 8 per group): significantly reduced Cisplatin damage"
CCCCC1(C2CCCC2)Cc2cc(OCCCC(=O)O)c(Cl)c(Cl)c2C1=O (stereo not drawn) [DCPIB],showed protection against CIHL,–,"caspase activity reached (HEI-OC1 cells; dosage ~4.4 μM, cisplatin 50 μM): 0%; IC50 (HEI-OC1 cells; cisplatin 50 μM): 3.1 µM"
CO[C@H]1C[C@@H]2CC[C@@H](C)[C@@](O)(O2)C(=O)C(=O)N2CCCC[C@H]2C(=O)O[C@H]([C@H](C)C[C@@H]2CC[C@@H](OCCO)[C@H](OC)C2)CC(=O)[C@H](C)/C=C(\C)[C@@H](O)[C@@H](OC)C(=O)[C@H](C)C[C@H](C)/C=C/C=C/C=C/1C [everolimus],showed protection against CIHL,–,activity at 13.3 µM (HEI-OC1 cells): 0%
CC(Nc1nc(N2CCCC2)nc2ccccc12)c1ccccc1 (stereo not drawn) [importazole],showed protection against CIHL,–,"caspase activity reached (HEI-OC1 cells; dosage ~40 μM, cisplatin 50 μM): 0%; IC50 (HEI-OC1 cells; cisplatin 50 μM): 6.52 µM; protection of hair cells from excitotoxic damage (zebrafish hair cells): protect hair cells from excitotoxic damage"
CC(C(=O)Nc1cccc(/N=C/c2c(O)ccc3ccccc23)c1)c1ccccc1 (stereo not drawn) [salermide],showed protection against CIHL,0,–
Sc1ncnc2nc[nH]c12 [6 mercaptopurine],showed protection against CIHL,–,activity at 0.165 µM (HEI-OC1 cells): ~70%
CC(=O)c1c(O)c(C)c(O)c(Cc2c(O)c3c(c(C(=O)/C=C/c4ccccc4)c2O)OC(C)(C)C=C3)c1O [rottlerin],showed protection against CIHL,–,activity at 13.3 µM (HEI-OC1 cells): 0%
C[C@@H]1C[C@H]2O[C@@H]2/C=C\C=C\C(=O)Cc2c(Cl)c(O)cc(O)c2C(=O)O1 [radicicol],showed protection against CIHL,–,activity at 13.3 µM (HEI-OC1 cells): 0%
CN1C(=O)[C@@]23C[C@]4([C@]56C[C@@]78SS[C@@](CO)(C(=O)N7[C@H]5Nc5ccccc56)N(C)C8=O)c5ccccc5N[C@@H]4N2C(=O)[C@]1(CO)SS3 [chaetocin],–,–,activity at 13.3 µM (HEI-OC1 cells): 0%
CSc1ccc2c(c1)N(CCC1CCCCN1C)c1ccccc1S2 (stereo not drawn) [thioridazine],–,0,"protection against cisplatin ototoxicity (CIHL) in zebrafish ([1]; zebrafish, in vivo): showed protection against CIHL"
CCCC[C@@H](C)/C=C(C)/C=C(\C)C(=O)NC1=C[C@@](O)(/C=C/C=C/C=C/C(=O)NC2=C(O)CCC2=O)[C@@H]2O[C@@H]2C1=O [manumycin A],showed protection against CIHL,–,"caspase activity reached (HEI-OC1 cells; dosage ~1.48 μM, cisplatin 50 μM): ~35%; IC50 (HEI-OC1 cells; cisplatin 50 μM): 11.7 µM"
"O=S([O-])([O-])=S.[Na+].[Na+] [Sodium thiosulfate (STS), Sodium thiosulfate]",–,–,protecting cisplatin-induced hearing loss (CIHL) ([2]; patients with other cancers): ineffective; protecting hearing ([2]; pediatric patients with localized hepatoblastoma who received cisplatin chemotherapy): effective
O=c1[nH]cc(F)c(=O)[nH]1 [5-fluorouracil],showed protection against CIHL,–,activity at 13.3 µM (HEI-OC1 cells): ~30%; protection of hair cells from excitotoxic damage (zebrafish hair cells): protect hair cells from excitotoxic damage
CCCc1cc(C(N)=S)ccn1 [prothionamide],showed protection against CIHL,~50,–
OCC(S)CS (stereo not drawn) [dimercaptopropanol],showed protection against CIHL,–,"caspase activity reached (HEI-OC1 cells; dosage ~40 μM, cisplatin 50 μM): 0%; IC50 (HEI-OC1 cells; cisplatin 50 μM): ~15 µM"
CC(=O)c1c(C)c2cnc(Nc3ccc(N4CCNCC4)cn3)nc2n(C2CCCC2)c1=O [palbociclib],–,~80,–
COC[C@H]1OC(=O)c2coc3c2[C@@]1(C)C1=C(C3=O)[C@@H]2CCC(=O)[C@@]2(C)C[C@H]1OC(C)=O [wortmannin],–,~50,–
